The results in this text go back to EP4782453A1 (Beyang Therapeutics Co., Ltd., priority 2023, dated 2025).

SMILES strings stand for the structures.

In the first test the target is T1, Menin-MLL (Homo sapiens, UniProt O00255).
T1 construct: His-Menin (M1-L615 end); purchased BIORTUS BP9210
T1 sequence (O00255 1-615 isoform O00255-1): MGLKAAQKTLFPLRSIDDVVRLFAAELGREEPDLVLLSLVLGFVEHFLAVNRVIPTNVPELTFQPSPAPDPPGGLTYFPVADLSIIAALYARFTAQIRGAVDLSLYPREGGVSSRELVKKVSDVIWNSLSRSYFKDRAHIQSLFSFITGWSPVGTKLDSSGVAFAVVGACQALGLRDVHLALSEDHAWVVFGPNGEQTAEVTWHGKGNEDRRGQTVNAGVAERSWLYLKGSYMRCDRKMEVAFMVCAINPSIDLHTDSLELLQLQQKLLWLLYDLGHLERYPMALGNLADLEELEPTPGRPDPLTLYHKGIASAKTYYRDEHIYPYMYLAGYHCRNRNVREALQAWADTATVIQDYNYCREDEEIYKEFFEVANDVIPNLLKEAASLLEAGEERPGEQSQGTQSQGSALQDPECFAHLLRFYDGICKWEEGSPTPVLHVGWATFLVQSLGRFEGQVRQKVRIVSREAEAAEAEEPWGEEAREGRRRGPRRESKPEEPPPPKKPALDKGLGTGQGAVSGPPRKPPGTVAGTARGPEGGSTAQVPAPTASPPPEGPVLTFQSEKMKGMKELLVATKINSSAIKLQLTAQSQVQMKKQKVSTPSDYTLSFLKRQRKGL
Briefly: Inhibitory activity against Menin-MLL binding (fluorescence polarization). As to conditions: Menin-MLL IC50, fluorescence polarization; 150 nM His-Menin, 15 nM FITC-MLL; 25°C for 60 min. Here is the method: • His-Menin (M1-L615 end), purchased from BIORTUS, Catalog Number: BP9210; and • FITC-MLL4-43, purchased from GenScript, Catalog Number: C491HFF190-3/PE1324.
In a 10 µL reaction solution (20 mM HEPES, pH 7.5, 50 mM NaCl, 1 mM DTT, 0.01% BSA) containing any compound from the examples, 150 nM His-Menin was added to a 384-well plate (Corning, Model: 4514). Each concentration was set up in duplicate wells. After centrifugation at 1000 RPM for 1 min, the plate was incubated at 25°C for 15 min. Then, 15 nM […] (20 mM HEPES, pH 7.5, 50 mM NaCl, 1 mM DTT, 0.01% BSA) was added to a 384-well plate. After centrifugation at 1000 RPM for 1 min, the reaction proceeded at 25°C for 60 min. Changes in fluorescence polarization were measured using a plate reader (PerkinElmer, Envision 2104). Based on the measured signals, the binding inhibition rate of the compound at each concentration was calculated, and the IC50 (half-maximal inhibitory concentration) of the compound was determined using statistical analysis software GraphPad Prism (GraphPad Software, Inc.) by means of a nonlinear fitting formula: 4-Parameter Logistic Model or Sigmoidal Dose-Response Model: Y = Bottom + (Top−Bottom)/(1 + 10^((LogIC50−X) × Hill Slope)), [formula] in which X indicates the logarithm of compound concentration, Y indicates a fluorescence polarization mP value, and Top and Bottom indicate the maximum and minimum readouts of fluorescence polarization mP values. Table 1: Inhibitory Activity of Compounds Against Menin-MLL Binding
For orientation: In fluorescence polarisation assays a small probe gives low polarisation when free and higher when bound to something large.
Consider `CCN(C(=O)c1cc(F)ccc1-c1cc(C2(F)CCN(C[C@H]3CC[C@H](NS(=O)(=O)CC)CC3)C2)cc2c1cnn2C)C(C)C` (stereo partly drawn) [Compound 61, N-ethyl-5-fluoro-2-[6-(3-fluoro-1-{[(1r,4r)-4-ethanesulfonamidocyclohexyl]methyl}pyrrolidin-3-yl)-1-methyl-1H-indazol-4-yl]-N-(isopropyl)benzamide], for which the IC50 (as a rule, the point on the concentration scale where inhibition reaches its midpoint) worked out at 58 nM. In turn, `CCN(C(=O)c1cc(F)ccc1-c1cc(C2CCN(C[C@H]3CC[C@H](NS(=O)(=O)CC)CC3)CC2)nn2c(C)ncc12)C(C)C` [Example 136, N-ethyl-5-fluoro-2-[7-methyl-2-(1-{[(1r,4r)-4-ethanesulfonamidocyclohexyl]methyl}piperidin-4-yl)imidazo[1,5-b]pyridazin-4-yl]-N-(isopropyl)benzamide] came in with an IC50 of 129 nM.

For `CCN(C(=O)c1cc(F)ccc1-c1cc(C2CN(C(=O)[C@@H]3CCCCN3)C2)cn2c(C)nc(Cl)c12)C(C)C` [Example 126], the IC50 is 19 nM.

The test is the same for the next values; noted with them: fluorescence polarization; 150 nM His-Menin, 15 nM FITC-MLL; 25°C for 60 min; read-out: Menin-MLL IC50.
As for `CC(C)CS(=O)(=O)N1CCC(CN2CC(c3cc(-c4ccc(F)cc4C(=O)N4CCOC[C@H]4C)c4cnn(C)c4c3)C2)CC1` [Example 176], the IC50 was 424 nM. Still for that read-out and setting: for `CCCC(=O)N1CCC(C(C)N2CC(c3cc(-c4ccc(F)cc4C(=O)N4CCOC[C@H]4C)c4cnc(C)n4c3)C2)CC1` (stereo partly drawn) [Example 320] the value was 12 nM; for `CCN(C(=O)c1cc(F)ccc1-c1cc(C2CCN(C[C@]3(O)CC[C@@H](NC(=O)OC(C)(C)C)CC3)C2)cc2c1cnn2C)C(C)C` (stereo partly drawn) [Compound 54, N-[(1s,4s)-4-{[3-(4-{2-[ethyl(isopropyl)aminoformyl]-4-fluorophenyl}-1-methyl-1H-indazol-6-yl)pyrrolidin-1-yl]methyl}-4-hydroxylcyclohexyl]tert-butyl carbamate], 105 nM. With `CCN(C(=O)c1cc(F)ccc1-c1cc(N2CCN(C(=O)[C@@H]3CCCN3)CC2)cn2c(C)ncc12)C(C)C` [Example 92], the IC50 was 46.5 nM.

Regarding `CCN(C(=O)c1cc(F)ccc1-c1cc([C@H]2CCN(CC3(O)CCC(NS(=O)(=O)CC)CC3)C2)cc2c1cnn2C)C(C)C` (stereo partly drawn) [Compound 55-1-2, N-ethyl-5-fluoro-2-[1-methyl-6-[(3R)-1-{[(1r,4r)-4-ethanesulfonamido-1-hydroxylcyclohexyl]methyl}pyrrolidin-3-yl]-1H-indazol-4-yl]-N-(isopropyl)benzamide], the half-inhibitory concentration (IC50) worked out at 120 nM. `COC1(CN2CC(c3cc(-c4ccc(F)cc4C(=O)N4CCOC[C@H]4C)c4c(F)nc(C)n4c3)C2)CCOCC1` [Example 236]: the IC50 was determined as 180 nM. Same read-out and setting: next, `CCN1CCN(CCC[C@H](C(C)C)N2CC(c3cc(-c4ccc(F)cc4C(=O)N(CC)C(C)C)c4cnn(C)c4c3)C2)CC1` [Example 394-2, N-ethyl-2-(6-{1-[(3R)-6-(4-ethylpiperazin-1-yl)-2-methylhexan-3-yl]azacyclobutan-3-yl}-1-methyl-1H-indazol-4-yl)-5-fluoro-N-(isopropyl)benzamide]: 3.2 nM. Turning to `Cc1nc(F)c2c(-c3ccc(F)cc3C(=O)N3CCOC[C@H]3C)cc(C3CN(C[C@H]4CC[C@@H](c5ncno5)CC4)C3)cn12` [Example 207-2, (3R)-4-{5-fluoro-2-[1-fluoro-3-methyl-6-(1-{[(1s,4s)-4-(1,2,4-oxadiazol-5-yl)cyclohexyl]methyl}azacyclobutan-3-yl)imidazo[1,5-a]pyridin-8yl]benzoyl}-3-methylmorpholine], the IC50 was found to be 269 nM. The same measure, in the same setting: next, `CCN(C(=O)c1cc(F)ccc1-c1cc(C2CCN(C[C@H]3CC[C@H](NC(C)=O)CC3)C2)cn2cncc12)C(C)C` (stereo partly drawn) [Example 45]: 95.5 nM.

As to `CCN(C(=O)c1cc(F)ccc1-c1cc(C2(O)CN(C[C@H]3CC[C@H](NC(=O)OC(C)(C)C)CC3)C2)cc2c1cnn2C)C(C)C` [Example 79, N-[(1r,4r)-4-{[3-(4-{2-[ethyl(isopropyl)aminoformyl]-4-fluorophenyl}-1-methyl-1H-indazol-6-yl)-3-hydroxylazacyclobutan-1-yl]methyl}cyclohexyl]tert-butyl carbamate], the IC50 came out at 279 nM.

In the case of `C[C@@H]1COCCN1C(=O)c1cc(F)ccc1-c1cc(C2CN(CC3CCN(C(=O)C4(O)CC4)CC3)C2)cc2c1cnn2C` [Example 171, 1-(4-{[3-(4-{4-fluoro-2-[(3R)-3-methylmorpholin-4-carbonyl]phenyl}-1-methyl-1H-indazol-6-yl)azacyclobutan-1-yl]methyl}piperidin-1-carbonyl)cyclopropan-1-ol], the IC50 was found to be 86 nM. Same read-out and setting: next, `CCN(C(=O)c1cc(F)ccc1-c1cc(C2CN(C(C[C@H](O)CO)C(C)C)C2)cn2c(C)ncc12)C(C)C` (stereo partly drawn) [Example 437, 2-(6-{1-[(5S)-5,6-dihydroxyl-2-methylhexan-3-yl]azacyclobutan-3-yl}-3-methylimidazo[1,5-a]pyridin-8-yl)-N-ethyl-5-fluoro-N-(isopropyl)benzamide]: 12 nM; `CCS(=O)(=O)N[C@@H]1CC[C@@H](CN2CC(c3cc(-c4ccc(F)cc4C(=O)N(CC(F)F)C(C)C)c4cnn(C)c4c3)C2)OC1` [Example 152, N-(2,2-difluoroethyl)-2-[6-(1-{[(2S,5R)-5-ethanesulfonamidooxacyclohexan-2-yl]methyl}azacyclobutan-3-yl)-1-methyl-1H-indazol-4-yl]-5-fluoro-N-(isopropyl)benzamide]: 74.5 nM. Turning to `CCN(C(=O)c1cc(F)ccc1-c1cc(C2CN([C@H](CN3CCN(C(C)=O)CC3)C(C)C)C2)cn2c(C)ncc12)C(C)C` [Example 443], the IC50 was 19.5 nM.

For `CCS(=O)(=O)NC1CCC(CN2CC(c3cc(-c4ccc(F)cc4C(=O)N(CC(F)F)C(C)C)c4cnccn34)C2)CC1` (stereo not drawn) [Example 143, N-(2,2-difluoroethyl)-2-(6-{1-[(4-ethanesulfonamidocyclohexyl)methyl]azacyclobutan-3-yl}pyrrolo[1,2-a]pyrazin-8-yl)-5-fluoro-N-(isopropyl)benzamide], the IC50 amounted to 2.7 nM. As for `Cc1nc(F)c2c(-c3ccc(F)cc3C(=O)N3CCOC[C@H]3C)cc(C3CN(CC4CCOC4)C3)cn12` (stereo partly drawn) [Example 240], the IC50 worked out at 53.5 nM. Same read-out and setting: for `Cc1nc(F)c2c(-c3ccc(F)cc3C(=O)N3[C@H](C)COC[C@H]3C)cc(C3CN(CC4CCN(C(=O)c5cnoc5)CC4)C3)cn12` [Example 233] the value was 42 nM; for `CCN(C(=O)c1cc(F)ccc1-c1cc(C2CN([C@@H](CC[C@H]3COCCN3)C(C)C)C2)cn2c(C)ncc12)C(C)C` [Example 457-1, N-ethyl-5-fluoro-2-(3-methyl-6-{1-[(3S)-4-methyl-1-[(3S)-morpholin-3-yl]pentan-3-yl]azacyclobutan-3-yl}imidazo[1,5-a]pyridin-8-yl)-N-(isopropyl)benzamide], 40 nM. For the compound `CCN(C(=O)c1cc(F)ccc1-c1cc(N2CCN(C(=O)[C@@H]3CCCN3)CC2)cn2c(C)nc(Cl)c12)C(C)C` [Example 114], the IC50 is 19 nM. With `CCN(C(=O)c1cc(F)ccc1-c1cc(N2CCN(C(=O)C3NCCc4ccccc43)CC2)cn2c(C)nc(Cl)c12)C(C)C` (stereo not drawn) [Example 122], the half-maximal inhibitory concentration (IC50) was 217 nM. On the same count and under the same terms, for `CC(=O)N1CCN(CCC[C@H](C(C)C)N2CC(c3cc(-c4ccc(F)cc4C(=O)N4CCOC[C@H]4C)c4c(F)nc(C)n4c3)C2)C2(CC2)C1` [Example 334] the value was 30 nM.

Consider `Cc1nc(F)c2c(-c3ccc(F)cc3C(=O)N3CCOC[C@H]3C)cc(C3CN([C@H](CCCN4CCOCC4)C(C)C)C3)cn12` [Example 199-1, (3R)-4-[5-fluoro-2-(1-fluoro-3-methyl-6-{1-[(3R)-2-methyl-6-(morpholin-4-yl)hexan-3-yl]azacyclobutan-3-yl}imidazo[1,5-a]pyridin-8-yl)benzoyl]-3-methylmorpholine], for which the IC50 came to 26 nM. Still for that read-out and setting: next, `CCN(C(=O)c1cc(F)ccc1-c1cc(C2CN([C@H](CCCN3CCN(S(C)(=O)=O)CC3)C(C)C)C2)cn2c(C)ncc12)C(C)C` [Example 397]: 4.2 nM; `CCN(C(=O)c1cc(F)ccc1-c1cc(C2CCN(Cc3ccc(N4CCOC4=O)cc3)C2)cn2cncc12)C(C)C` (stereo not drawn) [Example 41]: 92 nM.
